Data published in patent publication US20250195530A1, “POLQ INHIBITORS” (ASTRAZENECA AB, priority 2022, published 2025).
Where two headings read alike, the source gives them in different places. Blank lines part the entries; values can stand above or below the compound they belong to.

Columns and labels:
[1] = tested on: DLD-1 BRCA2−/− cells; experiment: Homologous recombination synthetic lethal inhibition of proliferation, DLD-1 BRCA2-/- (Cell Titre Glo 3D); type: cell-based; settings: Homo sapiens
In short: (§1)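 DLD-1 BRCA2−/− and parental DLD-1 cells exposed to 10-point dose range (10 μM to 0.51 nM, 3-fold) in RPMI/10% FBS at 37 °C, with medium and compound replenished on day 6. Viability by Cell Titre Glo 3D luminescence at day 7 (DLD-1) or day 12 (BRCA2−/−); IC50 as concentration halving maximum signal.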

[2] = tested on: DLD-1 cells; experiment: Inhibition of proliferation, DLD-1 BRCA2 wt control (Cell Titre Glo 3D); type: cell-based; settings: for IC50: Homo sapiens
In short: as §1

[3] = DLD-1, first proliferation column, DLD-1 BRCA2-/-, read-out: POLQ PD Prolif Lumin (converted)
[4] = DLD-1, second proliferation column, DLD-1 BRCA2 wt control, read-out: POLQ PD Prolif Lumin (converted)
[5] = DLD-1, 288 h, DLD-1 BRCA2−/− cells, 12 days, read-out: POLQ PD Prolif Lumin BRCA2 −/− mean pIC50 (converted)
[6] = DLD-1, 168 h, DLD-1 BRCA2 wt cells, 7 days, read-out: POLQ PD Prolif Lumin DLD1 mean pIC50 (converted)
[7] = DLD-1, DLD-1 BRCA2 −/−, mean, read-out: POLQ PD Prolif Lumin BRCA2 −/− mean pIC50 (converted)
[8] = DLD-1, DLD1 BRCA2 wt, mean, read-out: POLQ PD Prolif Lumin DLD1 mean pIC50 (converted)
[9] = DLD-1, 288 h, DLD-1 BRCA2−/−, 12 days, Cell Titre Glo 3D, read-out: POLQ PD Prolif Lumin BRCA2 −/− Mean pIC50 (converted)
[10] = DLD-1, 168 h, DLD-1 (BRCA2 wt control), 7 days, Cell Titre Glo 3D, read-out: POLQ PD Prolif Lumin DLD1 Mean pIC50 (converted)
[11] = DLD-1, first proliferation column (c5), taken as DLD-1 BRCA2-/-, read-out: POLQ PD Prolif Lumin (converted)
[12] = DLD-1, second proliferation column (c6), taken as DLD-1 BRCA2 wt, read-out: POLQ PD Prolif Lumin (converted)
[13] = DLD-1, first proliferation column (c5), DLD-1 BRCA2-/-, read-out: POLQ PD Prolif Lumin (converted)
[14] = DLD-1, second proliferation column (c6), DLD-1 BRCA2 wt control, read-out: POLQ PD Prolif Lumin (converted)
[15] = DLD-1, DLD-1 BRCA2 −/− cells, mean, read-out: POLQ PD Prolif Lumin BRCA2 −/− mean pIC50 (converted)
[16] = DLD-1, DLD1 BRCA2 wt cells, mean, read-out: POLQ PD Prolif Lumin DLD1 mean PIC50 (converted)

- IC50 [2, 4]: 6310 nM
Structure (SMILES): Cc1ccnc(Cn2c(-c3ccc(OCCN4CCNCC4)cc3Cl)nc3c(OC4(C)CC4)ncnc32)c1C [Example T597, 8-(2-chloro-4-(2-(piperazin-1-yl)ethoxy)phenyl)-9-((3,4-dimethylpyridin-2-yl)methyl)-6-(1-methylcyclopropoxy)-9H-purine]
- IC50 [1, 3]: 2510 nM

- IC50 [2, 6]: > 10000 nM
Structure (SMILES): CC1(Oc2ncnc3c2nc(-c2ccc(OCCN4CCNCC4)cc2Cl)n3Cc2ncccc2Cl)CC1 [Example K5, 8-(2-chloro-4-(2-(piperazin-1-yl)ethoxy)phenyl)-9-((3-chloropyridin-2-yl)methyl)-6-(1-methylcyclopropoxy)-9H-purine]
- IC50 [1, 5]: 2510 nM

- IC50 [2, 8]: > 6310 nM
Structure (SMILES): C[C@@H](CCOc1ccc(-c2nc3c(OC4(C)CC4)ncnc3n2Cc2cccc(C#N)c2)c(Cl)c1)C(=O)O [Example U8, (S)-4-(3-chloro-4-(9-(3-cyanobenzyl)-6-(1-methylcyclopropoxy)-9H-purin-8-yl)phenoxy)-2-methylbutanoic acid]
- IC50 [1, 7]: 398 nM

- IC50 [2, 6]: 5010 nM
Structure (SMILES): CC1(Oc2ncnc3c2nc(-c2ccc(N4CCC(N)CC4)cc2Cl)n3Cc2ccccc2)CC1 [Example M2, 1-(4-(9-benzyl-6-(1-methylcyclopropoxy)-9H-purin-8-yl)-3-chlorophenyl)piperidin-4-amine]
- IC50 [1, 5]: 316 nM

- IC50 [2, 8]: > 10000 nM
Structure (SMILES): C[C@H](CCOc1cccc(-c2nc3c(OC4(C)CC4)ncnc3n2Cc2cc(Cl)ccc2C#N)c1Cl)C(=O)O [Example U95, (R)-4-(2-chloro-3-(9-(5-chloro-2-cyanobenzyl)-6-(1-methylcyclopropoxy)-9H-purin-8-yl)phenoxy)-2-methylbutanoic acid]
- IC50 [1, 7]: 2 nM

- IC50 [2, 12]: > 10000 nM
Structure (SMILES): CC1(Oc2ncnc3c2nc(-c2ccc(OCCCC(=O)NS(C)(=O)=O)cc2Cl)n3Cc2cccc(Cl)c2)CC1 [Example T326, 4-(3-chloro-4-(9-(3-chlorobenzyl)-6-(1-methylcyclopropoxy)-9H-purin-8-yl)phenoxy)-N-(methylsulfonyl)butanamide]
- IC50 [1, 11]: 631 nM

- IC50 [2, 14]: > 10000 nM
Structure (SMILES): Cc1ccnc(Cn2c(-c3ccc(CN4CCC(O)CC4)cc3Cl)nc3c(OC4(C)CC4)ncnc32)c1 [Example T508, 1-(3-chloro-4-(6-(1-methylcyclopropoxy)-9-((4-methylpyridin-2-yl)methyl)-9H-purin-8-yl)benzyl)piperidin-4-ol]
- IC50 [1, 13]: 316 nM

- IC50 [2, 12]: > 10000 nM
Structure (SMILES): Cc1ccnc(Cn2c(-c3ccc(OC4CCNCC4)cc3Cl)nc3c(OC4(C)CC4)ncnc32)c1 [Example T354, 8-(2-chloro-4-(piperidin-4-yloxy)phenyl)-6-(1-methylcyclopropoxy)-9-((4-methylpyridin-2-yl)methyl)-9H-purine]
- IC50 [1, 11]: 501 nM

- IC50 ([2]; DLD-1, DLD-1 BRCA2 wt control proliferation, column head only partly shown, read-out: POLQ PD Prolif Lumin (converted)): > 10000 nM
Structure (SMILES): Cc1cnc(Cn2c(-c3ccc(OC4CC5(CNC5)C4)cc3Cl)nc3c(OC4(C)CC4)ncnc32)s1 [Example T215, 2-((8-(4-((2-azaspiro[3.3]heptan-6-yl)oxy)-2-chlorophenyl)-6-(1-methylcyclopropoxy)-9H-purin-9-yl)methyl)-5-methylthiazole]
- IC50 ([1]; DLD-1, DLD-1 BRCA2-/- proliferation, column head only partly shown, read-out: POLQ PD Prolif Lumin (converted)): 1000 nM

- IC50 [2, 8]: > 10000 nM
Structure (SMILES): COc1ccc(Cl)cc1Cn1c(-c2cccc(OCCOCC(=O)O)c2Cl)nc2c(OC3(C)CC3)ncnc21 [Example U52, 2-(2-(2-chloro-3-(9-(5-chloro-2-methoxybenzyl)-6-(1-methylcyclopropoxy)-9H-purin-8-yl)phenoxy)ethoxy)acetic acid]
- IC50 [1, 7]: 50.1 nM

- IC50 [2, 16]: > 10000 nM
Structure (SMILES): Cc1cnc(Cn2c(-c3ccc(O[C@H]4CCNC4)cc3Cl)nc3c(OC4(C)CC4)ncnc32)s1 [Example T70, (S)-2-((8-(2-chloro-4-(pyrrolidin-3-yloxy)phenyl)-6-(1-methylcyclopropoxy)-9H-purin-9-yl)methyl)-5-methylthiazole]
- IC50 [1, 15]: 631 nM

- IC50 [2, 12]: > 10000 nM
Structure (SMILES): Cc1ccnc(Cn2c(-c3ccc(CN4CC[C@@H](O)C4)cc3Cl)nc3c(OC4(C)CC4)ncnc32)c1 [Example T353, (R)-1-(3-chloro-4-(6-(1-methylcyclopropoxy)-9-((4-methylpyridin-2-yl)methyl)-9H-purin-8-yl)benzyl)pyrrolidin-3-ol]
- IC50 [1, 11]: 316 nM

- IC50 [2, 14]: > 10000 nM
Structure (SMILES): Cc1cc(Cn2c(-c3ccc(OCCN4CCNCC4)cc3Cl)nc3c(OC4(C)CC4)ncnc32)ccn1 [Example T531, 8-(2-chloro-4-(2-(piperazin-1-yl)ethoxy)phenyl)-6-(1-methylcyclopropoxy)-9-((2-methylpyridin-4-yl)methyl)-9H-purine]
- IC50 [1, 13]: 6310 nM

- IC50 [2, 14]: > 10000 nM
Structure (SMILES): Cc1ccnc(Cn2c(-c3ccc(OC4CNC4)cc3Cl)nc3c(OC4(C)CC4)ncnc32)c1 [Example T111, 8-(4-(azetidin-3-yloxy)-2-chlorophenyl)-6-(1-methylcyclopropoxy)-9-((4-methylpyridin-2-yl)methyl)-9H-purine]
- IC50 [1, 13]: 316 nM

- IC50 [2, 4]: 2510 nM
Structure (SMILES): Cc1ccnc(Cn2c(-c3ccc(OCCN4CCNC[C@@H]4C)cc3Cl)nc3c(OC4(C)CC4)ncnc32)c1 [Example T594, (S)-8-(2-chloro-4-(2-(2-methylpiperazin-1-yl)ethoxy)phenyl)-6-(1-methylcyclopropoxy)-9-((4-methylpyridin-2-yl)methyl)-9H-purine]
- IC50 [1, 3]: 501 nM

- IC50 [2, 16]: > 10000 nM
Structure (SMILES): CC1(Oc2ncnc3c2nc(-c2ccc(OCCC(=O)O)cc2Cl)n3Cc2cccc(Cl)c2)CC1 [Example T87, 3-(3-chloro-4-(9-(3-chlorobenzyl)-6-(1-methylcyclopropoxy)-9H-purin-8-yl)phenoxy)propanoic acid]
- IC50 [1, 15]: 398 nM

Second part, the compound before the results:

Structure (SMILES): CC1(Oc2ncnc3c2nc(-c2ccc(OCCCCC(=O)O)cc2Cl)n3Cc2cccc(Cl)c2)CC1 [Example 43, 5-(3-Chloro-4-(9-(3-chlorobenzyl)-6-(1-methylcyclopropoxy)-9H-purin-8-yl)phenoxy)pentanoic acid]
- IC50 [1, 9]: 79.4 nM
- IC50 [2, 10]: > 10000 nM

Structure (SMILES): COc1ccc(Cl)cc1Cn1c(-c2cccc(OC[C@@H](C)CC(=O)O)c2Cl)nc2c(OC3(C)CC3)ncnc21 (single isomer, unassigned; isomer 1) [Example 50, 4-(2-Chloro-3-(9-(5-chloro-2-methoxybenzyl)-6-(1-methylcyclopropoxy)-9H-purin-8-yl)phenoxy)-3-methylbutanoic acid (isomer 1)]
- IC50 [1, 9]: 6.31 nM
- IC50 [2, 10]: > 10000 nM

Structure (SMILES): CC1(Oc2nccc3c2nc(-c2ccc(OCCN4CCNCC4)cc2Cl)n3Cc2cc(Cl)ccn2)CC1 [Example 16, 2-(2-chloro-4-(2-(piperazin-1-yl)ethoxy)phenyl)-1-((4-chloropyridin-2-yl)methyl)-4-(1-methylcyclopropoxy)-1H-imidazo[4,5-c]pyridine]
- IC50 [1, 5]: 398 nM
- IC50 [2, 6]: > 10000 nM

Structure (SMILES): CC(=O)N1CCN(CCOc2cc(C)c(-c3nc4c(OC5(C)CC5)ncnc4n3Cc3ccccc3)cn2)CC1 [Example G4, 1-(4-(2-((5-(9-benzyl-6-(1-methylcyclopropoxy)-9H-purin-8-yl)-4-methylpyridin-2-yl)oxy)ethyl)piperazin-1-yl)ethan-1-one]
- IC50 [1, 5]: 1260 nM
- IC50 [2, 6]: > 10000 nM

Structure (SMILES): CN1CCCC1CCOc1ccc(-c2nc3c(OC4(C)CC4)ncnc3n2Cc2ccccc2)c(Cl)c1 (single isomer, unassigned) [Example D3, 9-benzyl-8-(2-chloro-4-(2-(1-methylpyrrolidin-2-yl)ethoxy)phenyl)-6-(1-methylcyclopropoxy)-9H-purine]
- IC50 [1, 5]: 63.1 nM
- POLQ PD Prolif Lumin DLD1 mean pIC50 ([2]; DLD-1 BRCA2 wt cells, 7 days): 5.7

Structure (SMILES): Cc1cc(N2CCC(N)CC2)ncc1-c1nc2c(OC3(C)CC3)ncnc2n1Cc1ccccc1 [Example F1, 1-(5-(9-benzyl-6-(1-methylcyclopropoxy)-9H-purin-8-yl)-4-methylpyridin-2-yl)piperidin-4-amine]
- IC50 [1, 5]: 398 nM
- IC50 [2, 6]: > 10000 nM

Structure (SMILES): C[C@@H](CCOc1ccc(-c2nc3c(OC4(C)CC4)ncnc3n2Cc2cccc(Cl)c2)c(Cl)c1)C(=O)O (single isomer, unassigned; isomer 2) [Example 35, 4-(3-Chloro-4-(9-(3-chlorobenzyl)-6-(1-methylcyclopropoxy)-9H-purin-8-yl)phenoxy)-2-methylbutanoic acid (Isomer 2)]
- IC50 [1, 9]: 126 nM
- IC50 [2, 10]: > 10000 nM

Structure (SMILES): CC(C)Oc1ccc2c(c1)nc(-c1ccc(OCCCN)cc1Cl)n2Cc1ccccc1 [Example 3, 3-(4-(1-Benzyl-5-isopropoxy-1H-benzo[d]imidazol-2-yl)-3-chlorophenoxy)propan-1-amine]
- IC50 [1, 5]: 1000 nM
- IC50 [2, 6]: 1580 nM
